Target: T1, human ACC2 (Homo sapiens, UniProt O00763)
T1 construct: made in house; host or cells: insect cells (baculoviral expression system)
Experiment: ACC2 assay, spectrophotometric 384 well assay (NADH-linked, coupled lactate dehydrogenase/pyruvate kinase)
Assay type: biochemical
Details: ACC2 assay, hACC2 construct lacking 128 N-terminal amino acids, 25° C., 340 nm; read-out: IC50
How it was run: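 ADP output tracked via pyruvate kinase/lactate dehydrogenase NADH oxidation, slope at 340 nm over 15 min, 25° C, with 500 μM ATP and 200 μM each acetyl-CoA and NADH. Enzyme: insect-cell-expressed human ACC2, N-terminal 128 residues deleted; pH 7.5 Tris with citrate, KHCO3. IC50 from four-parameter regression versus vehicle and no-acetyl-CoA controls.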

T1 sequence (O00763 129-2458 limits assumed): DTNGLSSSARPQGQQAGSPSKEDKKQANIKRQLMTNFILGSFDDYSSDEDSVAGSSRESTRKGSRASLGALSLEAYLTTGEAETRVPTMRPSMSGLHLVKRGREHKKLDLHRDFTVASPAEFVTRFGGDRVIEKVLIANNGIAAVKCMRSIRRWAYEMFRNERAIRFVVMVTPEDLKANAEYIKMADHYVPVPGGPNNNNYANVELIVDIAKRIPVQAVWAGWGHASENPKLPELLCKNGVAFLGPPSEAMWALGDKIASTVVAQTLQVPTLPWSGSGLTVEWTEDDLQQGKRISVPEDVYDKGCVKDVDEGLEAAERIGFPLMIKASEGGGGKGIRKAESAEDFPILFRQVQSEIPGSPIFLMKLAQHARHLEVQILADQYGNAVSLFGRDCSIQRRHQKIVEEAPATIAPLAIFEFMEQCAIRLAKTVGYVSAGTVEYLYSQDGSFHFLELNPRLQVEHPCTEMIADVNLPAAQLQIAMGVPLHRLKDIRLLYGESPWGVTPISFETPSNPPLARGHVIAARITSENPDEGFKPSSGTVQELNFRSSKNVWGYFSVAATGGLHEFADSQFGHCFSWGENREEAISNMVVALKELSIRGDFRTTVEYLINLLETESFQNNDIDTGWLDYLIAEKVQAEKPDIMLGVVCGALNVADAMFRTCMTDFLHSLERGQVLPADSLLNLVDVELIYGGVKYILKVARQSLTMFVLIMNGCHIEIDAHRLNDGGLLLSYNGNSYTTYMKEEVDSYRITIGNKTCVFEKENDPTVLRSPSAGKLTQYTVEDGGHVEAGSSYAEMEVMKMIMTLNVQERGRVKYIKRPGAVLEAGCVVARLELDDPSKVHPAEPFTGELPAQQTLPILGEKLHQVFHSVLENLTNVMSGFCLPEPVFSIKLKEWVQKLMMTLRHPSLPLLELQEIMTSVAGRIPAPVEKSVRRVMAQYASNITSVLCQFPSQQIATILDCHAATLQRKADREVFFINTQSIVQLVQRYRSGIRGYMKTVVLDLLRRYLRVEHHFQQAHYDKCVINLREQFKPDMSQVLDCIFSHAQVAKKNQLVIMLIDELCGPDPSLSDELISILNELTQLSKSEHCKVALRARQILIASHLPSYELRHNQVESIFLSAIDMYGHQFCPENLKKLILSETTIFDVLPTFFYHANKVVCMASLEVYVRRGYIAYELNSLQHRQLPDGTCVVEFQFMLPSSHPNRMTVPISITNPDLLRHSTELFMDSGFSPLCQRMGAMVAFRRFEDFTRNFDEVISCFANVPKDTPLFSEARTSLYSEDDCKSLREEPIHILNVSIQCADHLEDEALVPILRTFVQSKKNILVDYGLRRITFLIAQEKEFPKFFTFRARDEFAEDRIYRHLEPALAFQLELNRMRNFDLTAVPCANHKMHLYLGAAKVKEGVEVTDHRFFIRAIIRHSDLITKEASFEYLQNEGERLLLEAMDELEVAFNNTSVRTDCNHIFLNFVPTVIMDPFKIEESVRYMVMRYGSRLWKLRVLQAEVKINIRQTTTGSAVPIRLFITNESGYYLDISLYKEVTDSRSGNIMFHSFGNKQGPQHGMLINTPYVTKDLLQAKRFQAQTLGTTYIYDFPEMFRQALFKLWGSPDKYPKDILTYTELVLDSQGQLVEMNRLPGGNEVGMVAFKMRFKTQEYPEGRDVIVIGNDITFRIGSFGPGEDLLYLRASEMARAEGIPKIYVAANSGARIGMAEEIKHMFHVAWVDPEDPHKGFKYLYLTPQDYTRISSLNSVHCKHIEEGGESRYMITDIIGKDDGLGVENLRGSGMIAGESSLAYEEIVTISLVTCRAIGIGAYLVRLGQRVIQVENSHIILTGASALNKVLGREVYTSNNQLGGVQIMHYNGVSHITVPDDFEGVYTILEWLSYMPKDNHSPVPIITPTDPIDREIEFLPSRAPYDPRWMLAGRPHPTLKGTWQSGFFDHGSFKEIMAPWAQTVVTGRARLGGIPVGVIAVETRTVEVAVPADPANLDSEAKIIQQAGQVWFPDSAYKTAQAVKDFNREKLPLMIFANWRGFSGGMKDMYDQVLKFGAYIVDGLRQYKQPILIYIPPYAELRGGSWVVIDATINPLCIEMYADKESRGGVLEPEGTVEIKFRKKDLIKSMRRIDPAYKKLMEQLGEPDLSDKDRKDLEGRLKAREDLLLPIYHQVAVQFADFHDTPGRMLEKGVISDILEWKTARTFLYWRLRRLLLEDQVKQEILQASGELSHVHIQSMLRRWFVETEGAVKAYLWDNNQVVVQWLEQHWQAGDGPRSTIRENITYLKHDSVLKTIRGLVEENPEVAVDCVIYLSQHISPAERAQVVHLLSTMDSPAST

Row | SMILES | IC50
1 | CNCCNC(=O)c1cnc(N2CCC(c3ccc([C@H](C)NC(C)=O)cc3)CC2)nc1 [Example 18.58] | 18100 nM
2 | CC(=O)N[C@@H](C)c1ccc(C2CCN(c3ncc(C(=O)NCCN4CCCCC4)cn3)CC2)cc1 [Example 18.59] | 18500 nM
3 | CC(=O)N[C@@H](C)c1ccc(C2CCN(c3ncc(C(=O)NCC4CCNCC4)cn3)CC2)cc1 [Example 18.60] | 15500 nM
4 | CC(=O)N[C@@H](C)c1ccc(C2CCN(c3ncc(C(=O)N4CCC(C(N)=O)CC4)cn3)CC2)cc1 [Example 18.61] | 18900 nM
5 | CC(=O)N[C@@H](C)c1ccc(C2CCN(c3ncc(C(=O)NCC4CCN(Cc5ccccc5)C4)cn3)CC2)cc1 (some centres unmarked) [Example 18.62] | 11800 nM
6 | CC(=O)N[C@@H](C)c1ccc(C2CCN(c3ncc(C(=O)NCC(O)C(F)(F)F)cn3)CC2)cc1 (some centres unmarked) [Example 18.63] | 23100 nM
7 | CC(=O)N[C@@H](C)c1ccc(C2CCN(c3ncc(C(=O)NCCS(C)(=O)=O)cn3)CC2)cc1 [Example 18.64] | 25400 nM
8 | CC(=O)N[C@@H](C)c1ccc(C2CCN(c3ncc(C(=O)NCC4CCCCN4)cn3)CC2)cc1 (some centres unmarked) [Example 18.65] | 10200 nM
9 | CC(=O)N[C@@H](C)c1ccc(C2CCN(c3ncc(C(=O)NCCC(=O)N(C)C)cn3)CC2)cc1 [Example 18.66] | 15800 nM
10 | CC(=O)N[C@@H](C)c1ccc(C2CCN(c3ncc(C(=O)NCC4CCN(c5ccccc5)C4)cn3)CC2)cc1 (some centres unmarked) [Example 18.67] | 23700 nM
11 | CC(=O)N[C@@H](C)c1ccc(C2CCN(c3ncc(C(=O)N(C)CC4(C)COC4)cn3)CC2)cc1 [Example 18.68] | 19000 nM
12 | CC(=O)N[C@@H](C)c1ccc(C2CCN(c3ncc(C(=O)N(C)C4CCS(=O)(=O)C4)cn3)CC2)cc1 (some centres unmarked) [Example 18.69] | 20800 nM
13 | CC(=O)N[C@@H](C)c1ccc(C2CCN(c3ncc(C(=O)NC4(C#N)CC4)cn3)CC2)cc1 [Example 18.70] | 17400 nM
14 | CC(=O)N[C@@H](C)c1ccc(C2CCN(c3ncc(C(=O)N4CCC(C#N)CC4)cn3)CC2)cc1 [Example 18.71] | 14800 nM
15 | CNC(=O)CNC(=O)c1cnc(N2CCC(c3ccc([C@H](C)NC(C)=O)cc3)CC2)nc1 [Example 18.72] | 8900 nM
16 | CC(=O)N[C@@H](C)c1ccc(C2CCN(c3ncc(C(=O)NCCn4ccnc4)cn3)CC2)cc1 [Example 18.73] | 17900 nM
17 | CC(=O)N[C@@H](C)c1ccc(C2CCN(c3ncc(C(=O)N[C@H]4C[C@H](N)C4)cn3)CC2)cc1 [Example 18.74] | 24500 nM
18 | CC(=O)N[C@@H](C)c1ccc(C2CCN(c3ncc(C(=O)NCCC(C)O)cn3)CC2)cc1 (some centres unmarked) [Example 18.75] | 17800 nM
19 | CC(=O)N[C@@H](C)c1ccc(C2CCN(c3ncc(C(=O)N4CCC4)cn3)CC2)cc1 [Example 18.76] | 4000 nM
20 | CC(=O)N[C@@H](C)c1ccc(C2CCN(c3ncc(C(=O)NCC4CC4)cn3)CC2)cc1 [Example 18.77] | 1700 nM
21 | CC(=O)N[C@@H](C)c1ccc(C2CCN(c3ncc(C(=O)Nc4cc(C)on4)cn3)CC2)cc1 [Example 18.78] | 12700 nM
22 | CC(=O)N[C@@H](C)c1ccc(C2CCN(c3ncc(C(=O)NC4CCNCC4)cn3)CC2)cc1 [Example 18.79] | 16700 nM
23 | CC(=O)N[C@@H](C)c1ccc(C2CCN(c3ncc(C(=O)NCCC#N)cn3)CC2)cc1 [Example 18.80] | 27200 nM
24 | CC(=O)N[C@@H](C)c1ccc(C2CCN(c3ncc(C(=O)NC4CCN(C)C4)cn3)CC2)cc1 (some centres unmarked) [Example 18.81] | 16500 nM

Row | SMILES | IC50
25 | CC(=O)N[C@@H](C)c1ccc(C2CCN(c3ncc(C(=O)NCCC(N)=O)cn3)CC2)cc1 [Example 18.82] | 6200 nM
26 | CC(=O)N[C@@H](C)c1ccc(C2CCN(c3ncc(C(=O)NCC4OCCO4)cn3)CC2)cc1 [Example 18.83] | 8700 nM
27 | CC(=O)N[C@@H](C)c1ccc(C2CCN(c3ncc(C(=O)N(C)C4CCN(C)C4)cn3)CC2)cc1 (some centres unmarked) [Example 18.84] | 18100 nM
28 | CC(=O)N[C@@H](C)c1ccc(C2CCN(c3ncc(C(=O)Nc4ccc(CN(C)C)cc4)cn3)CC2)cc1 [Example 18.86] | 11300 nM
29 | CC(=O)N[C@@H](C)c1ccc(C2CCN(c3ncc(C(=O)N4CCCC4CN(C)C)cn3)CC2)cc1 (some centres unmarked) [Example 18.88] | 16600 nM
30 | CC(=O)N[C@@H](C)c1ccc(C2CCN(c3ncc(C(=O)N(C)c4ccccc4)cn3)CC2)cc1 [Example 18.89] | 1200 nM
31 | CCNC(=O)c1cnc(N2CCC(c3ccc([C@H](C)NC(C)=O)cc3)CC2)nc1 [Example 18.90] | 1200 nM
32 | CCN(CC)C(=O)c1cnc(N2CCC(c3ccc([C@H](C)NC(C)=O)cc3)CC2)nc1 [Example 18.91] | 910 nM
33 | CC(=O)N[C@@H](C)c1ccc(C2CCN(c3ncc(C(=O)NCc4ccccc4)cn3)CC2)cc1 [Example 18.92] | 2200 nM
34 | CC(=O)N[C@@H](C)c1ccc(C2CCN(c3ncc(C(=O)N(C)Cc4ccccc4)cn3)CC2)cc1 [Example 18.93] | 800 nM
35 | CC(=O)N[C@@H](C)c1ccc(C2CCN(c3ncc(C(=O)N4CCOCC4)cn3)CC2)cc1 [Example 18.94] | 2200 nM
36 | CC(=O)N[C@@H](C)c1ccc(C2CCN(c3ncc(C(=O)Nc4ccccc4)cn3)CC2)cc1 [Example 18.95] | 190 nM
37 | CC(=O)N[C@@H](C)c1ccc(C2CCN(c3ccnc(OCC(C)C)c3)CC2)cc1 [Example 19.1, (S)—N-{1-[4-(2′-Isobutoxy-3,4,5,6-tetrahydro-2H-[1,4′]bipyridinyl-4-yl)-phenyl]-ethyl}-acetamide] | 110 nM
38 | CC(=O)N[C@@H](C)c1ccc(C2CCN(c3ccnc(OC4CCC4)c3)CC2)cc1 [Example 19.2] | 40 nM
39 | COCCOc1cc(N2CCC(c3ccc([C@H](C)NC(C)=O)cc3)CC2)ccn1 [Example 19.3] | 700 nM
40 | CC(=O)N[C@@H](C)c1ccc(C2CCN(c3ccnc(OC4CCCC4)c3)CC2)cc1 [Example 19.4] | 70 nM
41 | CC(=O)N[C@@H](C)c1ccc(C2CCN(c3ccnc(OCC(C)(C)C)c3)CC2)cc1 [Example 19.5] | 80 nM
42 | CC(=O)N[C@@H](C)c1ccc(C2CCN(c3ccnc(OC4CCCCC4)c3)CC2)cc1 [Example 19.6] | 80 nM
43 | CC(=O)N[C@@H](C)c1ccc(C2CCN(c3ccnc(OC(C)c4ccccc4)c3)CC2)cc1 (some centres unmarked) [Example 19.7] | 590 nM
44 | COc1cccc(COc2cc(N3CCC(c4ccc([C@H](C)NC(C)=O)cc4)CC3)ccn2)c1 [Example 19.8] | 1500 nM
45 | CC(=O)N[C@@H](C)c1ccc(C2CCN(c3ccnc(OCCc4ccccc4)c3)CC2)cc1 [Example 19.9] | 1300 nM
46 | CC(=O)N[C@@H](C)c1ccc(C2CCN(c3ccnc(OCC4CC4)c3)CC2)cc1 [Example 19.10] | 100 nM
47 | CC(=O)N[C@@H](C)c1ccc(C2CCN(c3ccnc(OCC4CCC4)c3)CC2)cc1 [Example 19.11] | 140 nM
48 | CC(=O)N[C@@H](C)c1ccc(C2CCN(c3ccnc(OCCC4CC4)c3)CC2)cc1 [Example 19.12] | 180 nM

Row | SMILES | IC50
49 | CCC(C)Oc1cc(N2CCC(c3ccc([C@H](C)NC(C)=O)cc3)CC2)ccn1 (some centres unmarked) [Example 19.13] | 90 nM
50 | COCC(C)Oc1cc(N2CCC(c3ccc([C@H](C)NC(C)=O)cc3)CC2)ccn1 (some centres unmarked) [Example 19.14] | 400 nM
51 | CC(=O)N[C@@H](C)c1ccc(C2CCN(c3ccnc(OCC4(C)CC4)c3)CC2)cc1 [Example 19.15] | 80 nM
52 | CC(=O)N[C@@H](C)c1ccc(C2CCN(c3ccnc(O[C@H]4CCOC4)c3)CC2)cc1 [Example 19.16] | 270 nM
53 | CC(=O)N[C@@H](C)c1ccc(C2CCN(c3ccnc(OC4CCOCC4)c3)CC2)cc1 [Example 19.17] | 330 nM
54 | CC(=O)N[C@@H](C)c1ccc(C2CCN(c3ccnc(OCC4CCOC4)c3)CC2)cc1 (some centres unmarked) [Example 19.18] | 340 nM
55 | CC(=O)N[C@@H](C)c1ccc(C2CCN(c3ccnc(OCC(F)F)c3)CC2)cc1 [Example 19.19] | 110 nM
56 | CC(=O)N[C@@H](C)c1ccc(C2CCN(c3ccnc(O[C@@H]4CCOC4)c3)CC2)cc1 [Example 19.20] | 130 nM
57 | CC(=O)N[C@@H](C)c1ccc(C2CCN(c3ccnc(OCCC(C)C)c3)CC2)cc1 [Example 19.21] | 220 nM
58 | CCCOc1cc(N2CCC(c3ccc([C@H](C)NC(C)=O)cc3)CC2)ccn1 [Example 19.23] | 120 nM
59 | CCC(CC)Oc1cc(N2CCC(c3ccc([C@H](C)NC(C)=O)cc3)CC2)ccn1 [Example 19.24] | 240 nM
60 | CC(=O)N[C@@H](C)c1ccc(C2CCN(c3ccnc(OC4CC=CC4)c3)CC2)cc1 [Example 19.25] | 70 nM
61 | CC(=O)N[C@@H](C)c1ccc(C2CCN(c3ccnc(OCC4CC4(F)F)c3)CC2)cc1 (some centres unmarked) [Example 19.26] | 150 nM
62 | CC(=O)N[C@@H](C)c1ccc(C2CCN(c3ccnc(OC(C)C4CC4)c3)CC2)cc1 (some centres unmarked) [Example 19.27] | 410 nM
63 | CC(=O)N[C@@H](C)c1ccc(C2CCN(c3ccnc(OCC4(C#N)CC4)c3)CC2)cc1 [Example 19.28] | 230 nM
64 | CC(=O)N[C@@H](C)c1ccc(C2CCN(c3ccnc(OCc4ccon4)c3)CC2)cc1 [Example 19.29] | 920 nM
65 | CC(=O)N[C@@H](C)c1ccc(C2CCN(c3ccnc(OC4Cc5ccccc5C4)c3)CC2)cc1 [Example 19.30] | 540 nM
66 | CC(=O)N[C@@H](C)c1ccc(C2CCN(c3ccnc(OCc4ccccc4F)c3)CC2)cc1 [Example 19.31] | 750 nM
67 | CC(=O)N[C@@H](C)c1ccc(C2CCN(c3ccnc(OCc4cccc(F)c4)c3)CC2)cc1 [Example 19.32] | 270 nM
68 | CC(=O)N[C@@H](C)c1ccc(C2CCN(c3ccnc(OCc4ccc(F)cc4)c3)CC2)cc1 [Example 19.33] | 400 nM
69 | CC(=O)N[C@@H](C)c1ccc(C2CCN(c3ccnc(OCc4cccnc4)c3)CC2)cc1 [Example 19.34] | 520 nM
70 | COc1ccc(COc2cc(N3CCC(c4ccc([C@H](C)NC(C)=O)cc4)CC3)ccn2)cc1 [Example 19.35] | 27400 nM
71 | CC(=O)N[C@@H](C)c1ccc(C2CCN(c3ccnc(OCc4ccccn4)c3)CC2)cc1 [Example 19.37] | 1200 nM

From patent US9006450B2 (Boehringer Ingelheim International GmbH, priority 2010, dated 2015)
